Data reported in article PMC12752627, “Discovery of a Potent and Selective TEAD Degrader with Durable Degradation Activity” (Advanced Science, 2025).

Columns and labels:
[1] = test system: 867 cancer cell lines; experiment: PRISM assay (barcoded cell line screening, 5 days); format: cell-based; parameters: KG-FP-003-AUC: scale not given here;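 further: top test concentration 10 mM in eight-point dilution series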
Experimental: The principle of the PRISM assay has been described elsewhere and was conducted as previously outlined by the PRISM team at the Broad Institute.^[ [14], [31] ^] In PRISM (MTS027) experiments, KG‐FP‐003 was tested across 867 different cancer cell lines. Cells were treated with eight concentration gradients, ranging from 4.6 nM to […], in triplicate dilutions over a period of five days. Each plate was treated with 20 µM bortezomib as a positive control and DMSO as a negative control. Three replicate experiments were performed for each compound. The resulting data were analyzed using GraphPad PRISM 9.5.

[2] = test system: MSTO-211H xenograft; experiment: MSTO-211H xenograft efficacy study; format: in vivo, BALB/c nude mice; settings: for Tumor growth inhibition (TGI) rate: MSTO-211H xenograft
Experimental: Animal experiments were conducted by Medsyin (Shanghai) Co., Ltd. The experimental protocol was approved by the IACUC of the company (No.: PZWH‐2025031003) and strictly adhered to the guidelines of the AAALAC. The specific procedures are as follows: 5 × 10^6 MSTO‐211H cells or ES2 cells were suspended in 100 µL of a mixture of PBS and Matrigel and inoculated subcutaneously into the right axilla of 6‐week‐old BALB/c nude mice. Drug administration was initiated on day 7 after cell inoculation (when the average tumor volume was ≈150 mm^3). The experiment was divided into four groups with 6 mice in each group. The specific grouping and administration methods are as follows: control group, KY‐001 group (10 mg kg^−1, p.o.), KG‐FP‐003 (10 mg kg^−1 or 30 mg kg^−1, i.p.). The administration routes included intraperitoneal injection and intragastric administration, once a day for 21 consecutive days. During the experiment, the body weight and tumor volume of the mice were measured twice a week. At the end of the experiment, the mice were sacrificed and tumor tissues were collected.

Work on `CNC(=O)c1cc2c(c(F)c1-c1c(Cl)c(F)cc3c1C[C@@](CN[C@H]1CC[C@H](C(=O)N4CCC(CC5CCN(C(=O)COc6ccc(N7CCC(=O)NC7=O)c(C)c6)CC5)CC4)CC1)(c1ccccc1)O3)[C@@H](O)[C@@H](C)C2` [KG-FP-003] yielded a KG-FP-003-AUC ([1]; DANG_PANCREAS ACH-000243 PR500) of 0.98, a KG-FP-003-AUC ([1]; DAOY_CENTRAL_NERVOUS_SYSTEM ACH-000211 PR300) of 0.93 and a KG-FP-003-AUC ([1]; DAOY_CENTRAL_NERVOUS_SYSTEM ACH-000211 PR500) of 0.92. It also gave a KG-FP-003-AUC ([1]; DBTRG05MG_CENTRAL_NERVOUS_SYSTEM ACH-000863 PR500) of 0.64, a KG-FP-003-AUC ([1]; DEL_HAEMATOPOIETIC_AND_LYMPHOID_TISSUE ACH-000233 PR300) of 0.87 and a KG-FP-003-AUC ([1]; DETROIT562_UPPER_AERODIGESTIVE_TRACT ACH-000207 PR500) of 0.81. The KG-FP-003-AUC ([1]; DKMG_CENTRAL_NERVOUS_SYSTEM ACH-000244 PR500) was 0.85, the KG-FP-003-AUC ([1]; DL_SOFT_TISSUE ACH-001059 PR300) was 0.70 and the KG-FP-003-AUC ([1]; DMS53_LUNG ACH-000698 PR300) was 1.00. The KG-FP-003-AUC ([1]; DMS273_LUNG ACH-000749 PR500) was 0.99, the KG-FP-003-AUC ([1]; DND41_HAEMATOPOIETIC_AND_LYMPHOID_TISSUE ACH-000981 PR300) was 0.75 and the KG-FP-003-AUC ([1]; DOHH2_HAEMATOPOIETIC_AND_LYMPHOID_TISSUE ACH-000056 PR300) was 0.76. It also gave a KG-FP-003-AUC ([1]; DOTC24510_CERVIX ACH-001341 PR300) of 0.78, a KG-FP-003-AUC ([1]; DU145_PROSTATE ACH-000979 PR500) of 0.93 and a KG-FP-003-AUC ([1]; DU4475_BREAST ACH-000258 PR300) of 0.97. It also gave a KG-FP-003-AUC ([1]; DV90_LUNG ACH-000925 PR500) of 1.00, a KG-FP-003-AUC ([1]; EB1_HAEMATOPOIETIC_AND_LYMPHOID_TISSUE ACH-000877 PR300) of 0.99 and a KG-FP-003-AUC ([1]; EBC1_LUNG ACH-000563 PR500) of 0.77. The KG-FP-003-AUC ([1]; ECC2_BILIARY_TRACT ACH-001997 PR300) was 0.76, the KG-FP-003-AUC ([1]; ECGI10_OESOPHAGUS ACH-000305 PR500) was 0.96 and the KG-FP-003-AUC ([1]; EFE184_ENDOMETRIUM ACH-000435 PR300) was 0.72. For the same compound, the KG-FP-003-AUC ([1]; EFM19_BREAST ACH-000330 PR300) was 0.99, the KG-FP-003-AUC ([1]; EFM192A_BREAST ACH-000117 PR500) was 0.99 and the KG-FP-003-AUC ([1]; EFO21_OVARY ACH-000308 PR500) was 0.71. For the same compound, the KG-FP-003-AUC ([1]; EFO27_OVARY ACH-000936 PR500) was 0.77, the KG-FP-003-AUC ([1]; EGI1_BILIARY_TRACT ACH-001494 PR300) was 0.88 and the KG-FP-003-AUC ([1]; EKVX_LUNG ACH-000706 PR300) was 0.71. It also gave a KG-FP-003-AUC ([1]; EM2_HAEMATOPOIETIC_AND_LYMPHOID_TISSUE ACH-000295 PR300) of 0.94, a KG-FP-003-AUC ([1]; EMTOKA_ENDOMETRIUM ACH-001495 PR300) of 0.83 and a KG-FP-003-AUC ([1]; EOL1_HAEMATOPOIETIC_AND_LYMPHOID_TISSUE ACH-000198 PR300) of 0.69. For the same compound, the KG-FP-003-AUC ([1]; ES2_OVARY ACH-000906 PR500) was 0.62, the KG-FP-003-AUC ([1]; ESS1_ENDOMETRIUM ACH-000913 PR500) was 0.56 and the KG-FP-003-AUC ([1]; EW8_BONE ACH-000499 PR300) was 0.98. The KG-FP-003-AUC ([1]; EWS502_BONE ACH-000279 PR300) was 0.99, the KG-FP-003-AUC ([1]; EWS502_BONE ACH-000279 PR500) was 0.99 and the KG-FP-003-AUC ([1]; FADU_UPPER_AERODIGESTIVE_TRACT ACH-000846 PR500) was 0.92. It also gave a KG-FP-003-AUC ([1]; FLO1_OESOPHAGUS ACH-001500 PR300) of 0.75, a KG-FP-003-AUC ([1]; FTC133_THYROID ACH-000903 PR500) of 0.99 and a KG-FP-003-AUC ([1]; FTC238_THYROID ACH-000897 PR500) of 0.91. The KG-FP-003-AUC ([1]; G292CLONEA141B1_BONE ACH-000082 PR300) was 0.64, the KG-FP-003-AUC ([1]; G292CLONEA141B1_BONE ACH-000082 PR500) was 0.53 and the KG-FP-003-AUC ([1]; G361_SKIN ACH-000572 PR500) was 1.00. It also gave a KG-FP-003-AUC ([1]; G402_SOFT_TISSUE ACH-000375 PR300) of 0.43, a KG-FP-003-AUC ([1]; G402_SOFT_TISSUE ACH-000375 PR500) of 0.69 and a KG-FP-003-AUC ([1]; G415_BILIARY_TRACT ACH-001850 PR300) of 0.65. The KG-FP-003-AUC ([1]; GAMG_CENTRAL_NERVOUS_SYSTEM ACH-000098 PR500) was 0.45, the KG-FP-003-AUC ([1]; GB2_BILIARY_TRACT ACH-001961 PR300) was 0.92 and the KG-FP-003-AUC ([1]; GCIY_STOMACH ACH-000047 PR500) was 0.98. For the same compound, the KG-FP-003-AUC ([1]; GCT27_TESTIS ACH-001502 PR300) was 0.73, the KG-FP-003-AUC ([1]; GCT_SOFT_TISSUE ACH-000835 PR500) was 0.53 and the KG-FP-003-AUC ([1]; GI1_CENTRAL_NERVOUS_SYSTEM ACH-000756 PR500) was 0.74. For the same compound, the “Tumor growth inhibition (TGI) rate” value ([2]; 10 mg/kg i.p. q.d. 21 days) was 118%, the “Tumor growth inhibition (TGI) rate” value ([2]; 30 mg/kg i.p. q.d. 21 days) was 129% and the “Body weight during treatment” value ([2]; 10 or 30 mg/kg i.p., 21 days, MSTO-211H xenograft mice) was “stable body weights”.
